Tests used:
[1] = tested on: IκBα; experiment: Phospho-IκBα in SU-DHL-1 cells (Luminex multiplex); assay type: cell-based, human; conditions: 24 hours
Description: FIGS. 8A-8F. Effect of EP009 on ALCL cells is mediated through selective activation of ERK1/2 and JNK1/2 stress signaling pathways, and inhibition of p70 S6 kinase growth signaling pathways. SU-DHL-1 cells were treated with vehicle (PBS) or increasing amounts of EP009 (0-50 μM) for 24 hours. Cells were then lysed, clarified, and subjected to Luminex multiplex analysis to detect phosphorylated (A) ERK1/2, (B) JNK1/2, (C) p70 S6 kinase, (D) IκBα, (E) CREB, and (F) p38. Values represent mean fluorescence intensity (MFI) normalized to corresponding GAPDH MFI, while error bars represent the standard deviation (n=2). Representative data from two independent experiments are shown. Statistical significance was determined using Student's t-test. (*, p<0.05).
(§1) The MILLIPLEX MAP 8-plex Multi-Pathway Signaling Phosphoprotein kit (Millipore) was used to detect phosphorylated ERK1/2 (Thr185/Tyr187), STAT3 (Ser727), JNK1/2 (Thr183/Tyr185), p70 S6 kinase (Thr412), IκBα (Ser32), STAT5A/B (Tyr694/699), CREB (Ser133), and p38 (Thr180/Tyr182). The MILLIPLEX MAP 5-plex STAT Phosphoprotein kit (Millipore) was used to detect phosphorylated STAT1 (Tyr701), STAT2 (Tyr690), STAT3 (Tyr705), STAT5A/B (Tyr694/699), and STAT6 (Tyr641). The MILLIPLEX MAP Human Apoptosis 3-plex kit (Millipore) was used to detect cleaved PARP, cleaved Caspase 3, and total GAPDH for protein normalization.

[2] = tested on: PARP; experiment: PARP cleavage in SU-DHL-1 cells (Luminex multiplex); assay type: cell-based, human; conditions: 24 hours, dose-dependent
Description: FIGS. 7A-7C. EP009 reduces ALCL cell viability through induction of caspase 3 mediated apoptosis. (A) SUP-M2, SU-DHL-1 or H2228 cells were cultured with increasing amounts of EP009 (0-10 μM) for 72 hours and cell viability measured with the MTS tetrazolium salt assay. Values represent mean absorbance (OD490-OD650 nm) normalized to vehicle (PBS) treated control cells, while error bars represent the standard deviation (n=3). (B) SU-DHL-1 cells were treated with vehicle (PBS) or increasing amounts of EP009 (0-50 μM) for 24 hours. Cells were then lysed, clarified, and subjected to Luminex multiplex analysis to detect activated caspase 3 and (C) cleaved PARP. Values represent MFI normalized to corresponding GAPDH MFI, while error bars represent the standard deviation (n=2). Representative data from three independent experiments are shown. Statistical significance was determined using Student's t-test. (*, p<0.05).
as §1, with “The MILLIPLEX MAP Human Apoptosis 3-plex kit (Millipore) was used to detect cleaved PARP, cleaved Caspase 3, and total GAPDH for protein normalization.” left out

[3] = target: ALK (Homo sapiens, UniProt Q9UM73); experiment: Kinase panel: ALK; assay type: biochemical; conditions: 10 μM EP009
Description: (§2) Achieving JAK3 selectivity remains a significant challenge in the development of new small molecules for the treatment of cancer and immune-derived diseases. As such, the inventors employed cell-based screening assays of small-molecule libraries based upon the chemical scaffold of the established JAK3 inhibitor NC1153 (Stepkowski et al., J Immunol. (2005), 175(7):4236-4246) EP009 (FIG. 2A) was selected as a lead compound due to improved intrinsic stability (>95% purity in various solvents at 37° C. for 24 hours; FIG. 3) and high-degree of JAK3 selectivity. To test JAK3 versus JAK2 specificity of EP009, the IL-2/JAK3-dependent Kit225, and IL-3/JAK2-dependent BaF/3 cell lines were used. Kit225 and BaF/3 cells growing in the presence of IL-2 or IL-3, respectively, were treated with ascending concentrations of EP009 for 12 hours and cellular JAK3 and JAK2 tyrosine phosphorylation levels detected by Western blot analysis (FIGS. 2B and 2C). Following densitometric analysis, EP009 was determined to dose-dependently reduce IL-2-mediated JAK3 tyrosine phosphorylation with a cellular 50% inhibitory concentration (IC50) between 10 and 20 μM (FIG. 2B). […] To globally evaluate specificity, the inhibitory activity of EP009 was measured against a panel of protein kinases distributed throughout the kinome using the scanEDGE profiling service (KINOMEscan). […]

[4] = target: JNK1 (Homo sapiens, UniProt P45983); experiment: Kinase panel: JNK1; assay type: biochemical; conditions: 10 μM EP009
Description: as §2

[5] = target: CDK2 (Homo sapiens, UniProt P24941); experiment: Kinase panel: CDK2; assay type: biochemical; conditions: 10 μM EP009
Description: as §2

[6] = target: CHEK1 (Homo sapiens, UniProt O14757); experiment: Kinase panel: CHEK1; assay type: biochemical; conditions: 10 μM EP009
Description: as §2

Sequence of CHEK1 (O14757 whole entry): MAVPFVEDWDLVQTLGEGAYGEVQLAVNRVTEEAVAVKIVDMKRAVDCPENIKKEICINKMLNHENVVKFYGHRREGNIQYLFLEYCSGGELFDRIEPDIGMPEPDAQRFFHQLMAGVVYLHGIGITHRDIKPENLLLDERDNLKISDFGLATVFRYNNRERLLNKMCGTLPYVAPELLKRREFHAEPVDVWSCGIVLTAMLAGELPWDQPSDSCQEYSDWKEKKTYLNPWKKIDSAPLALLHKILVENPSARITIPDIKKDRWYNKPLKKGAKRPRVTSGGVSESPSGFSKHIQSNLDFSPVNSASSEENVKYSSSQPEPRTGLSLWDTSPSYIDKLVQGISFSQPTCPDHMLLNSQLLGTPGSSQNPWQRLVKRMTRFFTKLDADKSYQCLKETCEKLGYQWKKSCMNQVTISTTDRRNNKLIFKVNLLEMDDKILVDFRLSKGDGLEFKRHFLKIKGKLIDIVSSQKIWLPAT
Sequence of ALK (Q9UM73 19-1620): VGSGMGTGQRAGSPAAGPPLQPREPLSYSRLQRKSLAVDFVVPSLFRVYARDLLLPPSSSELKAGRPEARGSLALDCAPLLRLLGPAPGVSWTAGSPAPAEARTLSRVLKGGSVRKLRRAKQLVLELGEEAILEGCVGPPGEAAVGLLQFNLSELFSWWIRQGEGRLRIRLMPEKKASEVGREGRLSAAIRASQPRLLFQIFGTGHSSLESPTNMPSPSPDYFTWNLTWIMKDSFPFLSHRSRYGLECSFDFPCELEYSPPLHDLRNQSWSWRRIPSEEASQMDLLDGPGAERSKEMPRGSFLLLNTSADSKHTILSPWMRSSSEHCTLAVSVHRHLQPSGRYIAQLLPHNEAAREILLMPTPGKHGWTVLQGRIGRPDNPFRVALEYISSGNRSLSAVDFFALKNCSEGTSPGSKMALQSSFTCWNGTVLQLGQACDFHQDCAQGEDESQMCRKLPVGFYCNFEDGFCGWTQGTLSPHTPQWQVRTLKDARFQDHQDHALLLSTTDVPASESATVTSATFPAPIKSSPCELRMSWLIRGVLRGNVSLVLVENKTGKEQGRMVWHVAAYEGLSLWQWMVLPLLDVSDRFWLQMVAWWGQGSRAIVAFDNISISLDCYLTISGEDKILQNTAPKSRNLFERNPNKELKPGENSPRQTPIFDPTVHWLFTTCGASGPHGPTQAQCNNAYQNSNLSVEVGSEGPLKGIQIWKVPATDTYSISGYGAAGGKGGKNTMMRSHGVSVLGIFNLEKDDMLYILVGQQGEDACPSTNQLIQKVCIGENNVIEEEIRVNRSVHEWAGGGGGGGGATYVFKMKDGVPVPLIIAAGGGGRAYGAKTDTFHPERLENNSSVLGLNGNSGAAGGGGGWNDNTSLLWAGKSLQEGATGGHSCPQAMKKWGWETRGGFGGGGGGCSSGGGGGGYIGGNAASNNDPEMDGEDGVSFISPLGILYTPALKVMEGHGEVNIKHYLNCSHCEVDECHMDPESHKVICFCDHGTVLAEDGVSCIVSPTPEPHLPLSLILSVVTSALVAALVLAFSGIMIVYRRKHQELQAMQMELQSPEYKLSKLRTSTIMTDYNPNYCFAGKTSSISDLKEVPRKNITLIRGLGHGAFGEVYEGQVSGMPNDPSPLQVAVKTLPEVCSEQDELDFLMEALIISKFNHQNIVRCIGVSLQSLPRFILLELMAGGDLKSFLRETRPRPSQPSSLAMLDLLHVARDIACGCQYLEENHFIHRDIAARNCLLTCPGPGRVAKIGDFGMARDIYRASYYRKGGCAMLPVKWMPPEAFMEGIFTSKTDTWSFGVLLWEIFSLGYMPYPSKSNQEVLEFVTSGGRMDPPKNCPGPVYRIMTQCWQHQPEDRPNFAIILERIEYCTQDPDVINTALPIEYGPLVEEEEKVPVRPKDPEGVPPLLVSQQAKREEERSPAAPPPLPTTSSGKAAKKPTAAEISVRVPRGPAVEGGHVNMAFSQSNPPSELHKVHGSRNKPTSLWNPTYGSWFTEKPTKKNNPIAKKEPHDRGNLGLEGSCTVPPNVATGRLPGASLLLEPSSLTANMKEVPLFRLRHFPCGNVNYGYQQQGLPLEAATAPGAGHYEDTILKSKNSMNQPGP
Sequence of JNK1 (P45983 whole entry): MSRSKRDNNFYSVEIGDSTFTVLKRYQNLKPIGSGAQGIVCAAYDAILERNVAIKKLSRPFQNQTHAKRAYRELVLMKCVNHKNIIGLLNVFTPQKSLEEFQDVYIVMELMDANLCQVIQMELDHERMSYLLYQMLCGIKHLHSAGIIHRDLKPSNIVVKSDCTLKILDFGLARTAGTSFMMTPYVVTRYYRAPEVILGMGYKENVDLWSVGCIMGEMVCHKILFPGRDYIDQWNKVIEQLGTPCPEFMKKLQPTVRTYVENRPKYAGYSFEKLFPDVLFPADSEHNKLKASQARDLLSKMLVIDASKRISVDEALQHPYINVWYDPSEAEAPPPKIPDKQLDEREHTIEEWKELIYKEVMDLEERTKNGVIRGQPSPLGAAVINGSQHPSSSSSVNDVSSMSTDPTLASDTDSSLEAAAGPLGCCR

With `C=C1CCCCCCCCCC(CO)C1=O` (stereo not drawn) [EP009, 2-(Hydroxymethyl)-12-methylenecyclododecanone] the IκBα phosphorylation status [1] was “No statistically significant change”, the PARP cleavage [2] was “increased” and the “Kinase Activity (% of Control)” value [3] was 100 % of Control. For the same molecule, the “Kinase Activity (% of Control)” value [4] was 99 % of Control, the “Kinase Activity (% of Control)” value [5] was 98 % of Control and the “Kinase Activity (% of Control)” value [6] was 100 % of Control.

Reference: patent publication US9371265B2, “Compositions and methods related to inhibitors of JAK kinase” (EP PHARMA, INC., priority 2012, dated 2016)
